Data set [1] concerns human osteosarcoma cells (MG-63). The experiment in a line: Assessment of cytotoxicity by SRB assay. In kind it is cell-based. The note with it: MG-63 cells, 0.01 μM to 100 μM for 72 h. As to the method:
(§1) The human prostate cancer cells (PC3) and human osteosarcoma cells (MG-63) were obtained from Nawah Scientific Inc. (Mokatam, Cairo, Egypt) and cultured in DMEM (Dulbecco's modified eagle's medium), Gibco, USA, supplemented with fetal bovine serum (FBS) at a concentration of 10% and 100 U/mL of penicillin and streptomycin (PS). The Cells were incubated at 37° C. in a humidified environment that contained 5% CO2.
(§2) Cells were seeded in 96-well plates as aliquots of 100 μL cell suspension and incubated in a complete media for 24 h. afterward, cells were treated with 3-(2-(6-Methoxypyridin-3-yl)-4,5-diphenyl-1H-imidazol-1-yl)-N,N-dimethylpropan-1-amine at diverse concentrations ranging from 0.01 μM to 100 μM for 72 h. Then, cells were fixed at 4° C. for one hour with 150 μL of 10% trichloroacetic acid (TCA). After washing the cells five times with distilled water, 70 μL of sulforhodamine (SRB) solution (0.4% w/v) was added and incubated for 10 min at room temperature in a dark place. […] Then, 150 μL of Tris pH 10.5 (10 mM) was added, and the absorbance was measured at 540 nm using a BMG LABTECH®- FLUOstar Omega microplate reader (Ortenberg, Germany). Half maximal inhibitory concentrations (IC50) values were calculated for each experiment using GraphPad Prism 6 software. […]
(§3) The inhibition was calculated using the following equation: Inhibition %=100-Average Viability
(In general: In SRB staining, fixed cells bind dye roughly in proportion to their protein.)

Data set [2] deals with human prostate cancer cells (PC3). The experiment in a line: Assessment of cytotoxicity by SRB assay. Type of data set: cell-based. Conditions: 0.01 μM to 100 μM for 72 h. As to the method:
as §1, §2, §3

Each structure is given as a SMILES string.

As a reminder, the melting point is the temperature of the solid-liquid transition. In turn, `COc1ccc(-c2nc(-c3ccccc3)c(-c3ccccc3)n2CCCN(C)C)cn1` [3-(2-(6-Methoxypyridin-3-yl)-4,5-diphenyl-1H-imidazol-1-yl)-N,N-dimethylpropan-1-amine] yielded a melting point of 125 to 127 °C. Also, the antiproliferative activities entry in data set [1] was “excellent antiproliferative activities”. Besides, the antiproliferative activities entry in data set [2] is “excellent antiproliferative activities”.

These data come from patent US11932619B1, “3-(2-(6-Methoxypyridin-3-yl)-4,5-diphenyl-1H-imidazol-1-yl)-N,N-dimethylpropan-1-amine as an anticancer compound” (KING FAISAL UNIVERSITY, priority 2023, dated 2024).
